pEC50: −log10 of the molar value.
Experiments:
[1] = Selectivity index, ratio of CC50 for African green monkey Vero cells to EC50 for Chikungunya virus Indian Ocean 889 infected in African green monkey Vero cells; format: toxicity; details: read-out: Ratio CC50/EC50
Chikungunya virus = experiment: Antiviral activity against Chikungunya virus Indian Ocean 889 infected in African green monkey Vero cells assessed as inhibition of virus-induced cytopathic effect after 7 days by MTS method; format: functional, organism-based; details: Indian Ocean 889, Vero, 168 h

Compound `C/C1=C\[C@@H]2[C@H](CC[C@]3(C)O[C@H]3C3=C(C1=O)[C@@H](O)[C@H](C)C3=O)C2(C)C` has a selectivity ratio [1] of 1.92 and a pEC50 (Chikungunya virus) of 4.85.

Source: ChEMBL document CHEMBL4251673, “Structurally Diverse Diterpenoids from Sandwithia guyanensis” (J Nat Prod, 2018)
